Reference: patent US20220110315A1, “SOLUTIONS AND METHODS FOR ORGAN PRESERVATION” (priority 2019, published 2022)

System: isolated perfused rat hearts
Experiment: Isolated perfused rat heart (modified Langendorff) global ischemia/reperfusion injury
Settings: 5 μM for 5 min prior to 30 min global ischemia and for first 5 min of 45 min reperfusion; compared to untreated control I/R hearts; n=7

SMILES: Oc1ccc2c3c1O[C@H]1c4[nH]c5ccccc5c4C[C@@]4(O)[C@@H](C2)N(CC2CC2)CC[C@]314 [naltrindole]
- infarct size (TTC staining at end of reperfusion): reduced infarct size
- post-reperfused cardiac function (+dP/dtmax, -dP/dtmin, LVDP, LVEDP): significantly restored
